Measured values taken from the kinase profiling compilation of Christmann-Franck et al. (2016).

Tests used:
Assay in all cases: Caliper, Mobility shift assay off-chip
DDR2 (human) = DDR2 (human) (UniProt Q16832)
BMX (human) = BMX (human) (UniProt P51813)
SGK3 (human) = SGK3 (human) (UniProt Q96BR1)
SRPK3 (human) = SRPK3 (human) (UniProt Q9UPE1)
EPHB3 (human) = EPHB3 (human) (UniProt P54753)
[1] = test system: EGFR (human), P00533 [T790M/L858R]
PLK2 (human) = PLK2 (human) (UniProt Q9NYY3)
EEF2K (human) = EEF2K (human) (UniProt O00418)
STK33 (human) = STK33 (human) (UniProt Q9BYT3)
AKT3 (human) = AKT3 (human) (UniProt Q9Y243)
STK24 (human) = STK24 (human) (UniProt Q9Y6E0)
FGFR2 (human) = FGFR2 (human) (UniProt P21802)
PAK3 (human) = PAK3 (human) (UniProt O75914)
DAPK3 (human) = DAPK3 (human) (UniProt O43293)
PRKCZ (human) = PRKCZ (human) (UniProt Q05513)
NTRK2 (human) = NTRK2 (human) (UniProt Q16620)
FLT1 (human) = FLT1 (human) (UniProt P17948)
TSSK1B (human) = TSSK1B (human) (UniProt Q9BXA7)
[2] = test system: ABL1 (human), P00519 [T315I]
ROS1 (human) = ROS1 (human) (UniProt P08922)
CDK5 CDK5R1 p25 (human) = CDK5 CDK5R1 p25 (human) (UniProt Q15078+Q00535)
TLK2 (human) = TLK2 (human) (UniProt Q86UE8)
PRKCB1 (human) = PRKCB1 (human) (UniProt P05771)
PRKD1 (human) = PRKD1 (human) (UniProt Q15139)
MELK (human) = MELK (human) (UniProt Q14680)
[3] = test system: FGFR1 (human), P11362 [V561M]
MAP3K9 (human) = MAP3K9 (human) (UniProt P80192)
SGK2 (human) = SGK2 (human) (UniProt Q9HBY8)
CDK6 CCND3 (human) = CDK6 CCND3 (human) (UniProt Q00534+P30281)
MINK1 (human) = MINK1 (human) (UniProt Q8N4C8)
[4] = test system: EGFR (human), P00533 [L861Q]
ABL2 (human) = ABL2 (human) (UniProt P42684)
[5] = test system: EGFR (human), P00533 [T790M]
NLK (human) = NLK (human) (UniProt Q9UBE8)
NTRK1 (human) = NTRK1 (human) (UniProt P04629)
DCLK2 (human) = DCLK2 (human) (UniProt Q8N568)
PRKCH (human) = PRKCH (human) (UniProt P24723)
[6] = test system: KIT (human), P10721 [D816H]
CAMK2D (human) = CAMK2D (human) (UniProt Q13557)
SRPK2 (human) = SRPK2 (human) (UniProt P78362)
NEK7 (human) = NEK7 (human) (UniProt Q8TDX7)

Sequence of PRKD1 (human) (Q15139 whole entry, looked up): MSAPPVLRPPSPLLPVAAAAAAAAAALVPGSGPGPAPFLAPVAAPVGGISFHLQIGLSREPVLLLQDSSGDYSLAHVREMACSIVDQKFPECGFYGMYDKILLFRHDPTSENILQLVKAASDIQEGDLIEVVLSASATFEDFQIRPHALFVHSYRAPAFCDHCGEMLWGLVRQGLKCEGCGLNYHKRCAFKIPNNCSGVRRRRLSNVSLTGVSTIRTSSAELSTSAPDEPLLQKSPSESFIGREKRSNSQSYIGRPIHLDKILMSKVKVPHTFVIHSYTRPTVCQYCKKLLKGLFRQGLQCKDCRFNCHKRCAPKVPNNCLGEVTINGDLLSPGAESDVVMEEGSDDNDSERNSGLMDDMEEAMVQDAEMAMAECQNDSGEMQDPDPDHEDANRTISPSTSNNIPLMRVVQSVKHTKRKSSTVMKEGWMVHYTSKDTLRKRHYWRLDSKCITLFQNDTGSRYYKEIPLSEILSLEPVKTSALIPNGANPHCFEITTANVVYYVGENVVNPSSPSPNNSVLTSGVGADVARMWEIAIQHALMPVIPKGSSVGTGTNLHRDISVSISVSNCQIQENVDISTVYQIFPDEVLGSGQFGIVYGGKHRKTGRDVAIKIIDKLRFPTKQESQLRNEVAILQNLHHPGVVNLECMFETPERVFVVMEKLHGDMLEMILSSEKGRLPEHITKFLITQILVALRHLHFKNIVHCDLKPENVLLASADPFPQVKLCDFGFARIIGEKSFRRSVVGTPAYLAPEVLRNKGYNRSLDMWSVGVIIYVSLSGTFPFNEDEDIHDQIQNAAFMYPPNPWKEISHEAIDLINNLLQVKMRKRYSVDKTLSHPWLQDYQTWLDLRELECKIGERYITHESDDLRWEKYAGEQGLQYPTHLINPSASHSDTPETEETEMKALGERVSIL
Sequence of SRPK3 (human) (Q9UPE1 whole entry, looked up): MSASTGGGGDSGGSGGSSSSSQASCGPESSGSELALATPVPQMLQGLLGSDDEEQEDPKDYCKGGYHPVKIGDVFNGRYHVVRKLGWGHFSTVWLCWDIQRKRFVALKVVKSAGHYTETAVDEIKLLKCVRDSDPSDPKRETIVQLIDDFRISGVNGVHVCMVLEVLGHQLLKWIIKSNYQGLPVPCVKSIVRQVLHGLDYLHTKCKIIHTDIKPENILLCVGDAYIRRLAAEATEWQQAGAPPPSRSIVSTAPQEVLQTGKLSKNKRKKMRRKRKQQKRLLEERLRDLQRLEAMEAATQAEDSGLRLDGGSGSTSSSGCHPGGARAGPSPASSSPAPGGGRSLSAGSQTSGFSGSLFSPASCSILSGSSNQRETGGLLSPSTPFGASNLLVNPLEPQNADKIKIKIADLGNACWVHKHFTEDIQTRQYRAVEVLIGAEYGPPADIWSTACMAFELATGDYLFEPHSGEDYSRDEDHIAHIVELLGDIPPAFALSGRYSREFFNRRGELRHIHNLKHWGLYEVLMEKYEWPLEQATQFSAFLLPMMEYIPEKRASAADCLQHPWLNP
Sequence of DAPK3 (human) (O43293 whole entry, looked up): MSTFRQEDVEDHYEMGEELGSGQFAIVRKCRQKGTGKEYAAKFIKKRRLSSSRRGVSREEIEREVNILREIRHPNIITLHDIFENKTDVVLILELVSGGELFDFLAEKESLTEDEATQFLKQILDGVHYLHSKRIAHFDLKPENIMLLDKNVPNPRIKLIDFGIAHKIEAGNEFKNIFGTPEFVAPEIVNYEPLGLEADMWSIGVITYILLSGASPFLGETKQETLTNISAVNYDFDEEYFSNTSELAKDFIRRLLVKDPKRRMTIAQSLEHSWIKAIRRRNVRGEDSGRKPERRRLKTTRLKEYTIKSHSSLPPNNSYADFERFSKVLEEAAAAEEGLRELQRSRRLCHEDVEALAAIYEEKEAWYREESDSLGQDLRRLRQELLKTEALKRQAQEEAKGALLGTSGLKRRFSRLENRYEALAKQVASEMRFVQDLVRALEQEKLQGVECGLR
Sequence of MINK1 (human) (Q8N4C8 whole entry, looked up): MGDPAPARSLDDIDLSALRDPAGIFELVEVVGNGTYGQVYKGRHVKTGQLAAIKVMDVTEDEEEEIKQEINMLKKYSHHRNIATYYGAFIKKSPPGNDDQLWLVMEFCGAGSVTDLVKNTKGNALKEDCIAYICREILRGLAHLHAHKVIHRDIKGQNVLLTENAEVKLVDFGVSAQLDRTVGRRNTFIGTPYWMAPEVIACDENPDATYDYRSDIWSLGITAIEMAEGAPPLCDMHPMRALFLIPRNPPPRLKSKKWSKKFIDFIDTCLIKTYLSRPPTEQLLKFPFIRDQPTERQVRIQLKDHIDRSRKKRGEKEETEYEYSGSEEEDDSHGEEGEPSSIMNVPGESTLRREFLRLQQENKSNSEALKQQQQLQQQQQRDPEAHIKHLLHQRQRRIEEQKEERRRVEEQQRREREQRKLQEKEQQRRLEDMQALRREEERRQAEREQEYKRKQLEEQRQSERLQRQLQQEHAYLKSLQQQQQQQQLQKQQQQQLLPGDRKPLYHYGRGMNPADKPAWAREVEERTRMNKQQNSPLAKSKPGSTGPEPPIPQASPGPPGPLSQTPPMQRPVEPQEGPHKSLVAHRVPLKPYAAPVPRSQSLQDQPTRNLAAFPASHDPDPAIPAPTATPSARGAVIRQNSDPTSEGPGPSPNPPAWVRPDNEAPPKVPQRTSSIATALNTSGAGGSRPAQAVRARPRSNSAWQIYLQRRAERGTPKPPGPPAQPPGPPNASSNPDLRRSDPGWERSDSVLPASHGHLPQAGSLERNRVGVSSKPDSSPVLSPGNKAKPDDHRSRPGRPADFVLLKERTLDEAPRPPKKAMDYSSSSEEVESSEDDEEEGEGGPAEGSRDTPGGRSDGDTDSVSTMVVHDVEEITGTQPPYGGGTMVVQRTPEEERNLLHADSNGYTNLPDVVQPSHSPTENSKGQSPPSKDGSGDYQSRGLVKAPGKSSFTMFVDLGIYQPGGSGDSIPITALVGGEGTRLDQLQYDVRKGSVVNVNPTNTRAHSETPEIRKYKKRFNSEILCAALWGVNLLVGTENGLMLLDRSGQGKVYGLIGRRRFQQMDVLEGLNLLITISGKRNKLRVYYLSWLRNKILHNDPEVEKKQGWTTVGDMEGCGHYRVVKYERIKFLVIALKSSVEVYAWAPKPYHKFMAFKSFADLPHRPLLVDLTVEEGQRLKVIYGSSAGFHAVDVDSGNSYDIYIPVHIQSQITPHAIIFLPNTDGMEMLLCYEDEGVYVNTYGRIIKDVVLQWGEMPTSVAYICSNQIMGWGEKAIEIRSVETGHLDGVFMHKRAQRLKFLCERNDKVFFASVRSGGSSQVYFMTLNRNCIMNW
Sequence of SGK2 (human) (Q9HBY8 whole entry, looked up): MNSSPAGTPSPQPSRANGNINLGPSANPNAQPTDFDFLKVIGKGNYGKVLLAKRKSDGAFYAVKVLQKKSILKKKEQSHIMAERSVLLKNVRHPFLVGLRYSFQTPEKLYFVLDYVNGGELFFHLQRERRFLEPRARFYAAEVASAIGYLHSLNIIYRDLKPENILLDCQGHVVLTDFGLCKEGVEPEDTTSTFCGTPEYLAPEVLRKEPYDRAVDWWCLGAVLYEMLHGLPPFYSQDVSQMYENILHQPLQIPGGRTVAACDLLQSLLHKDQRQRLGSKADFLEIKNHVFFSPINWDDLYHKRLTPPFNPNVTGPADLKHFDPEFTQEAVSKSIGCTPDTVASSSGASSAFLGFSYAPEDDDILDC
Sequence of SGK3 (human) (Q96BR1 whole entry, looked up): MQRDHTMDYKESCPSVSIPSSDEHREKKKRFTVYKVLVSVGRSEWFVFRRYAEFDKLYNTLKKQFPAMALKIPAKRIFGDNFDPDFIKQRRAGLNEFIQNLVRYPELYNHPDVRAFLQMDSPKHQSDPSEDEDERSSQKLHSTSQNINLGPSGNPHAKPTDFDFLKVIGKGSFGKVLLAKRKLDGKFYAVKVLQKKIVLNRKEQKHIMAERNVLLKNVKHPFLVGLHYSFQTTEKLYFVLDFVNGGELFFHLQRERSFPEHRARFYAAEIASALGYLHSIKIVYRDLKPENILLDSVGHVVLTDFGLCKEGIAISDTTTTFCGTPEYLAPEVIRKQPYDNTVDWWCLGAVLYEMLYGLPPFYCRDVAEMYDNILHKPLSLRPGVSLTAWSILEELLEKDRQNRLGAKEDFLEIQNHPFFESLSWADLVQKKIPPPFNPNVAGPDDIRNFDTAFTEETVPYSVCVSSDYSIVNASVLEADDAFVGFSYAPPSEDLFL
Sequence of CDK6 CCND3 (human) (P30281 whole entry, looked up): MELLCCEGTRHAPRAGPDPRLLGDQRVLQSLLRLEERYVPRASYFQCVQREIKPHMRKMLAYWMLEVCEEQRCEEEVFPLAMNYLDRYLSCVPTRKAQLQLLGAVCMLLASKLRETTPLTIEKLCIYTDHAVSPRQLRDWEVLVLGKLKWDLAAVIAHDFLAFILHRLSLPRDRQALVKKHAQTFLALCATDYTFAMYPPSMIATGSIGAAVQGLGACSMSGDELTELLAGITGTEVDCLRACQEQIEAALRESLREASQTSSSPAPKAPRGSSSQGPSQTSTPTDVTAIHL
Sequence of CDK6 CCND3 (human) (Q00534 whole entry, looked up): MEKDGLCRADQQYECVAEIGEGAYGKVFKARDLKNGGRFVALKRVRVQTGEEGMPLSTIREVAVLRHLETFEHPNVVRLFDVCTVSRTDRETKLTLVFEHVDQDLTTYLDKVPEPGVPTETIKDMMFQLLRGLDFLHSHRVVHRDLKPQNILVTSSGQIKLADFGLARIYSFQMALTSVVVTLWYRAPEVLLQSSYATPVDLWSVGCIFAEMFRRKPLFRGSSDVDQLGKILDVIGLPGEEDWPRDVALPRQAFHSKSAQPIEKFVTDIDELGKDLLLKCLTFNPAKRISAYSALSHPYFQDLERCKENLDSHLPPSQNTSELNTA

O=C(N[C@@H](COc1ccc2[nH]c(=O)[nH]c2c1)c1ccccc1)c1cccn(Cc2ccc(F)c(F)c2)c1=O
residual activity (DDR2 (human); compound 10.0 µM): 118%
residual activity (BMX (human); compound 10.0 µM): 139%
residual activity (SGK3 (human); compound 10.0 µM): 117%
residual activity (SRPK3 (human); compound 10.0 µM): 114%
residual activity (EPHB3 (human); compound 10.0 µM): 129%
residual activity ([1]; compound 10.0 µM): 99%
residual activity (PLK2 (human); compound 10.0 µM): 97%
residual activity (EEF2K (human); compound 10.0 µM): 98%
residual activity (STK33 (human); compound 10.0 µM): 104%
residual activity (AKT3 (human); compound 10.0 µM): 99%
residual activity (STK24 (human); compound 10.0 µM): 100%
residual activity (FGFR2 (human); compound 10.0 µM): 92%
residual activity (PAK3 (human); compound 10.0 µM): 88%
residual activity (DAPK3 (human); compound 10.0 µM): 121%
residual activity (PRKCZ (human); compound 10.0 µM): 106%
residual activity (NTRK2 (human); compound 10.0 µM): 95%
residual activity (FLT1 (human); compound 10.0 µM): 95%
residual activity (TSSK1B (human); compound 10.0 µM): 100%
residual activity ([2]; compound 10.0 µM): 91%
residual activity (ROS1 (human); compound 10.0 µM): 111%
residual activity (CDK5 CDK5R1 p25 (human); compound 10.0 µM): 111%
residual activity (TLK2 (human); compound 10.0 µM): 100%
residual activity (PRKCB1 (human); compound 10.0 µM): 95%
residual activity (PRKD1 (human); compound 10.0 µM): 100%
residual activity (MELK (human); compound 10.0 µM): 104%
residual activity ([3]; compound 10.0 µM): 103%
residual activity (MAP3K9 (human); compound 10.0 µM): 91%
residual activity (SGK2 (human); compound 10.0 µM): 97%
residual activity (CDK6 CCND3 (human); compound 10.0 µM): 102%
residual activity (MINK1 (human); compound 10.0 µM): 113%
residual activity ([4]; compound 10.0 µM): 96%
residual activity (ABL2 (human); compound 10.0 µM): 112%
residual activity ([5]; compound 10.0 µM): 107%
residual activity (NLK (human); compound 10.0 µM): 100%
residual activity (NTRK1 (human); compound 10.0 µM): 108%
residual activity (DCLK2 (human); compound 10.0 µM): 121%
residual activity (PRKCH (human); compound 10.0 µM): 96%
residual activity ([6]; compound 10.0 µM): 97%
residual activity (CAMK2D (human); compound 10.0 µM): 92%
residual activity (SRPK2 (human); compound 10.0 µM): 102%
residual activity (NEK7 (human); compound 10.0 µM): 102%

Cc1n[nH]c2c1c(=O)n(CCCN)c1ccc(Cl)cc21
residual activity (DDR2 (human); compound 1.0 µM): 107%
residual activity (BMX (human); compound 1.0 µM): 94%
residual activity (SGK3 (human); compound 1.0 µM): 94%
residual activity (SRPK3 (human); compound 1.0 µM): 90%
residual activity (EPHB3 (human); compound 1.0 µM): 136%
residual activity (PLK2 (human); compound 1.0 µM): 102%
residual activity (AKT3 (human); compound 1.0 µM): 90%
residual activity (FGFR2 (human); compound 1.0 µM): 99%
residual activity (DAPK3 (human); compound 1.0 µM): 43%
residual activity (PRKCZ (human); compound 1.0 µM): 97%
residual activity (NTRK2 (human); compound 1.0 µM): 50%
residual activity (FLT1 (human); compound 1.0 µM): 86%
residual activity (TSSK1B (human); compound 1.0 µM): 24%
residual activity ([2]; compound 1.0 µM): 86%
residual activity (ROS1 (human); compound 1.0 µM): 95%
residual activity (CDK5 CDK5R1 p25 (human); compound 1.0 µM): 108%
residual activity (PRKD1 (human); compound 1.0 µM): 20%
residual activity (SGK2 (human); compound 1.0 µM): 70%
residual activity (CDK6 CCND3 (human); compound 1.0 µM): 106%
residual activity (MINK1 (human); compound 1.0 µM): 134%
residual activity ([4]; compound 1.0 µM): 99%
residual activity (ABL2 (human); compound 1.0 µM): 111%
residual activity (NTRK1 (human); compound 1.0 µM): 46%
residual activity (PRKCH (human); compound 1.0 µM): 95%
residual activity (SRPK2 (human); compound 1.0 µM): 108%
residual activity (NEK7 (human); compound 1.0 µM): 105%

O=C(NCCCNc1nc(Nc2cccc(NC(=O)N3CCCC3)c2)ncc1I)c1cccs1
residual activity (DDR2 (human); compound 1.0 µM): 113%
residual activity (BMX (human); compound 1.0 µM): 94%
residual activity (SGK3 (human); compound 1.0 µM): 81%
residual activity (SRPK3 (human); compound 1.0 µM): 113%
residual activity (EPHB3 (human); compound 1.0 µM): 93%
residual activity ([1]; compound 1.0 µM): 103%
residual activity (PLK2 (human); compound 1.0 µM): 112%
residual activity (EEF2K (human); compound 1.0 µM): 106%
residual activity (STK33 (human); compound 1.0 µM): 82%
residual activity (AKT3 (human); compound 1.0 µM): 103%
residual activity (STK24 (human); compound 1.0 µM): 195%
residual activity (FGFR2 (human); compound 1.0 µM): 86%
residual activity (PAK3 (human); compound 1.0 µM): 106%
residual activity (DAPK3 (human); compound 1.0 µM): 102%
residual activity (PRKCZ (human); compound 1.0 µM): 107%
residual activity (NTRK2 (human); compound 1.0 µM): 42%
residual activity (FLT1 (human); compound 1.0 µM): 14%
residual activity (TSSK1B (human); compound 1.0 µM): 99%
residual activity ([2]; compound 1.0 µM): 113%
residual activity (ROS1 (human); compound 1.0 µM): 117%
residual activity (CDK5 CDK5R1 p25 (human); compound 1.0 µM): 46%
residual activity (TLK2 (human); compound 1.0 µM): 91%
residual activity (PRKCB1 (human); compound 1.0 µM): 72%
residual activity (PRKD1 (human); compound 1.0 µM): 53%
residual activity (MELK (human); compound 1.0 µM): 53%
residual activity ([3]; compound 1.0 µM): 9%
residual activity (MAP3K9 (human); compound 1.0 µM): 23%
residual activity (SGK2 (human); compound 1.0 µM): 94%
residual activity (CDK6 CCND3 (human); compound 1.0 µM): 86%
residual activity (MINK1 (human); compound 1.0 µM): 97%
residual activity ([4]; compound 1.0 µM): 117%
residual activity (ABL2 (human); compound 1.0 µM): 97%
residual activity ([5]; compound 1.0 µM): 82%
residual activity (NLK (human); compound 1.0 µM): 58%
residual activity (NTRK1 (human); compound 1.0 µM): 31%
residual activity (DCLK2 (human); compound 1.0 µM): 116%
residual activity (PRKCH (human); compound 1.0 µM): 95%
residual activity ([6]; compound 1.0 µM): 14%
residual activity (CAMK2D (human); compound 1.0 µM): 3%
residual activity (SRPK2 (human); compound 1.0 µM): 99%
residual activity (NEK7 (human); compound 1.0 µM): 109%
